# Assays:
# [1] = test system: THP-1; assay: Cytotoxicity against human THP-1 cells assessed as reduction in cell viability at 10 to 30 uM incubated for 72 hrs; type: toxicity, cell-based; conditions: thp-1, 72 h, dose 10-30 µM
# [2] = biological target: T1, Peroxisome proliferator-activated receptor gamma (Homo sapiens, UniProt P37231); type: cell-based, COS7
# T1 sequence (P37231 whole entry): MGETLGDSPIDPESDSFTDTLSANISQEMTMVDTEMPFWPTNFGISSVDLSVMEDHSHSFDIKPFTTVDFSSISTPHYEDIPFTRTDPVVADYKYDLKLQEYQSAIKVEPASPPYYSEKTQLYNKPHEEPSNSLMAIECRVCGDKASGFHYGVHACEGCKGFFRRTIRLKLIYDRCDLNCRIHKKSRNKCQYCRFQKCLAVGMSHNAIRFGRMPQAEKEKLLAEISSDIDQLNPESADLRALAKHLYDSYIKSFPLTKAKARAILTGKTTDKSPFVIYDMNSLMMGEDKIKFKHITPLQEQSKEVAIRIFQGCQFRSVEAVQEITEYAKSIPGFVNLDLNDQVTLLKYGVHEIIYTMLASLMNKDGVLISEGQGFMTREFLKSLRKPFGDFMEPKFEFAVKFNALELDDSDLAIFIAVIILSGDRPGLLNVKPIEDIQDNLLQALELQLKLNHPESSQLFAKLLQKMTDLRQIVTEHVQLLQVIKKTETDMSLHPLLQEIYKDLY
# Description: Agonist activity at human PPARgamma transfected in african green monkey COS7 cells assessed transcriptional activation incubated for 24 hrs by luciferase assay
# [3] = test system: THP-1; assay: Cytotoxicity against human THP-1 cells assessed as reduction in cell viability at 100 uM incubated for 72 hrs; type: toxicity, cell-based; conditions: thp-1, 72 h
EC50 [2] [µM],Compound,Activity [1],Activity [3]
,C/C(=C\CCC1(C)CCc2cc(OCc3ccc(F)cc3)ccc2O1)CC/C=N/Nc1ncc(Cl)cc1C(F)(F)F (stereo not given),Non-Toxic,
,CC1(CC/C=N/Nc2nc3ccccc3s2)CCc2cc(OCc3ccc(F)cc3)ccc2O1 (stereo not given),Non-Toxic,
5.54,CC1(CC/C=N/Nc2ncc(Cl)cc2C(F)(F)F)CCc2cc(OCc3ccc(F)cc3)ccc2O1 (stereo not given),Non-Toxic,Toxic
